Several values for one entry are separate records, joined by “and”; a condition that tells them apart may be missing. Identical values can stand only once. Like-named read-outs stand apart in the source and are kept apart here. Marks after values point to notes of the source that are not given here.
Key:
[1] = cited from earlier work
[2] = 25°C, cited from earlier work
[3] = cited from earlier work; remark: listed apart in the source
[4] = 25°C, cited from earlier work; remark: listed apart in the source
[5] = set-up: method as in Chaves et al., [1992]; conditions: ref Chaves et al., [1992]; cited from earlier work
[6] = Stability and protonation constants of Zn^II complexes (pH-potentiometry); assay type: physicochemical; conditions: 25°C
From the text: (§1) For determining the protonation constants of DOTPI(Chx)4 and DOTPI three parallel pH-potentiometric titration were made with 0.2 M NaOH in 0.002 M ligand solutions. The stability and protonation constants of the Ca^II and Zn^II complexes formed with DOTPI(Chx)4 and DOTPI ligands have been determined by direct pH-potentiometric titration made at 1:1 and 2:1 metal to ligand concentration ratios. (the concentration of ligands was 0.002 M). For the calculation of the logKML and logKMLHi values, the mL base—pH data used were obtained in the pH range 1.7–12.0.
(§2) For pH measurements and titrations, a Metrohm 785 DMP Titrino titration workstation and a Metrohm-6.0233.100 combined electrode were used. Equilibrium measurements were carried out at a constant ionic strength (0.15 M NaCl) in 6 mL samples at 25°C. The solutions were stirred, and constantly purged with N2. The titrations were performed in a pH range of 1.7–11.7. KH-phthalate (pH = 4.005) and borax (pH = 9.177) buffers were used to calibrate the pH meter. For calculation of [H^+] from measured pH values, the method proposed by Irving et al. was used (Irving et al., [1967]). A 0.01 M HCl solution was titrated with the standardized NaOH solution in the presence of 0.1 M NaCl. Differences between the measured (pHread) and calculated pH (–log[H^+]) values were used to obtain the equilibrium H^+ concentration from the pH values, measured in the titration experiments. For the equilibrium calculations, the stoichiometric water ionic product (pKw) is also needed to calculate [H^+] values in basic conditions. The VNaOH – pHread data pairs of the HCl – NaOH titration obtained in the pH range 10.5–12 have been used to calculate the pKw value (pKw = 13.85). For the calculation of the equilibrium constants the program PSEQUAD (Zekany and Nagypal, [1985]) was used.
(§3) 2. Protonation and complexation equilibria of DOTPI and
(§4) The protonation processes of the DOTPI and DOTPI(Chx)4, ligands have been studied by pH-potentiometry. The protonation constants (logKiH) of ligands are defined according to Eq. (1).
(§5) The stability and protonation constants of DOTPI and DOTPI(Chx)4 complexes with several metal ions were determined by pH-potentiometric and UV/Vis spectrophotometric, methods.
(§6) The stability and protonation constants of the metal complexes formed with the DOTPI and DOTPI(Chx)4, ligands, defined by Eqs. […]
(§7) where i = 1, 2, 3…5. The KML and KMHiL values characterizing the formation of DOTPI and DOTPI(Chx)4 complexes of CaII and ZnII have been calculated from the pH-potentiometric titration data obtained at 1:1 metal to ligand concentration ratios. The protonation constants of the complexes Cu(DOTPI) and Cu(DOTPI( Chx)4) were also determined by pH-potentiometric titrations, made at 1:1 metal to ligand concentration ratio. The pH-potentiometric titrations of DOTPI ligand were also performed at 2:1 metal-to-ligand ratio in order to examine the possible formation of dinuclear CaII-, ZnII-, and CuII-DOTPI complexes.
(§8) The stability and protonation constants of the dinuclear complexes formed with the DOTPI […]
(§9) where i=1 and 2. In calculating the equilibrium constants, the best fit of the mL base – pH data was obtained by assuming the formation of ML, MHL, MH 2L, MH3L, MH4L, MH5L, M2L, M2LH, and M2LH2 complexes with DOTPI and DOTPI(Chx)4.
(§10) (also on this page, place not known: ]H][LH[ ]LH[K 1i iH + − = DOTPI( Chx)4 f ormed ]L][M[ ]ML[K ML = ]H][LMH[ ]LMH[K 1i i LMHi + − = i 3 …5. Ca II Zn II -potentiometric pH - metal -to-ligand Cu II-DOTPI ]M][ML[ ]LM[K 2 LM2 = ]H][LHM[ ]LHM[K 1i2 i2 LHM i2 + − = pH MH 4L,) […]

[7] = Stability and protonation constants of Cu^II complexes (spectrophotometry, pH-potentiometry); assay type: physicochemical; conditions: 25°C
Method: Stability constant of Cu(DOTPI) complex was determined by spectrophotometry, studying the Cu^II-DOTPI systems at the absorption band of Cu^II-complex at [H^+] = 0.01– 0.2 M over the wavelength range of 400–800 nm. Concentrations of Cu^II and DOTPI were 1 mM. The H^+ concentration in the samples was adjusted by addition of calculated amounts of 2.0 M HCl, while ionic strength was not constant in these samples. Samples were kept at 25°C for a week. Absorbance values were determined at 9 wavelengths (550, 575, 600, 625, 650, 675, 700, 725, and 750 nm). For calculation of stability and protonation constants of Cu(DOTPI), molar absorptivities of CuCl2, and Cu(HxL) species (wherein x = 0, 1, 2 …5) were determined by recording the spectra of 1.0 × 10^−3, 2.0 × 10^−3 and 3.0 × 10^−3 M solutions of CuCl2 and Cu(DOTPI) in the pH range of 1.7–11.7. The protonation constants of the complexes Cu(DOTPI) and the stability and protonation constants of the dinuclear Cu2(DOTPI) complexes were determined by pH-potentiometric titrations, made at 1:1 and 2:1 metal to ligand concentration ratios.
The stability constant of the Cu(DOTPI(Chx)4) complex has been determined by spectrophotometry with the use of competition reactions between DOTPI(Chx)4 and EDTA for the Cu^2+ at pH = 5.0. The concentration of Cu(EDTA) was 0.2 mM, while that of the DOTPI(Chx)4 was varied between 0.1 and 1.0 mM (5 samples). The samples were kept at 25°C for 2 weeks. The absorbance values and the molar absorptivities of CuCl2, Cu(DOTPI(Chx)4), and Cu(EDTA) have been determined at 11 wavelength (300, 304, 308, 312, 316, 320, 324, 328, 332, 336, and 340 nm) values between 300 and 340 nm. The molar absorptivities of CuCl2, Cu(DOTPI(Chx)4), and Cu(EDTA) were deteremined in 0.05, 0.1, 0.2, 0.3, and 0.4 mM solutions. The absorbance and pH values were determined in the samples after the equilibrium was reached (the time needed to reach the equilibria was determined by spectrophotometry). The spectrophotometric measurements were made with the use of 1.0 cm cells with a Cary 1E spectrophotometer at 25°C. The protonation constants of Cu(DOTPI(Chx)4) complex were determined by pH-potentiometric titrations at 1:1 metal to ligand molar ratio.
as §2, with “The VNaOH – pHread data pairs of the HCl – NaOH titration obtained in the pH range 10.5–12 have been used to calculate the pKw value (pKw = 13.85).” left out
as §3, §4, §5
The stability and protonation constants of the metal complexes formed with the DOTPI and […]

[8] = Protonation constants of ligands by pH-potentiometry; assay type: physicochemical; conditions: 25°C, I = 0.15 M NaCl
From the text: as §1, §2, §3, §4, §5, §6, §7, §8, §9, §10

[9] = Stability and protonation constants of Ca^II complexes (pH-potentiometry); assay type: physicochemical; conditions: 25°C, I = 0.15 M NaCl, potentiometry
From the text: as §1, §2, §3, §4, §5, §6
as §7, with “The pH-potentiometric titrations of DOTPI ligand were also performed at 2:1 metal-to-ligand ratio in order to examine the possible formation of dinuclear CaII-, ZnII-, and CuII-DOTPI complexes.” left out

[10] = I = 0.15 M NaCl, ref Takács et al., [2014]
[11] = 25°C, I = 0.15 M NaCl, ref Baranyai et al., [2010]
[12] = I = 0.1 M KNO3, ref Baranyai et al., [2007]
[13] = I = 0.1 M KNO3, ref Desreux et al., [1981]
[14] = 25°C, I = 0.1 M KNO3, ref Bazakas and Lukeš, [1995], Kotková et al., [2009]
[15] = 25°C, I = 0.1 M KNO3, ref Lázár et al., [1991]

Q: Which logK1H ([1]; taken from the literature) does the source give for `O=C(O)CN(CCN(CC(=O)O)CC(=O)O)CC(=O)O` [EDTA, ethylenediamine-tetraacetic acid] here?
A: 9.43

Q: And the logK2H ([1]; taken from the literature)?
A: 6.12

Q: And the logK3H ([1]; taken from the literature)?
A: 2.85

Q: What about the logK4H ([1]; taken from the literature) of the same molecule?
A: 2.18

Q: What about the logK5H ([1]; taken from the literature) of the same molecule?
A: 1.77

Q: With `O=C(O)CN1CCN(CC(=O)O)CCN(CC(=O)O)CCN(CC(=O)O)CC1` [DOTA, 1,4,7,10-tetraazacyclododecane-1,4,7,10-tetraacetic acid] as the molecule, how does the “protonation constant ZnH2L” value ([2]; 0.15 M NaCl) read?
A: 3.40 (1)

Q: What about the “protonation constant ZnHL” value ([2]; 0.15 M NaCl) of the same molecule?
A: 4.16 (2)

Q: What about the “logKML, ZnL” value [2, 10] of the same molecule?
A: 17.35 (1)

Q: And the “protonation constant CuH2L” value ([3]; 25°C, 0.15 M NaCl)?
A: 3.41 (1)

Q: What about the “protonation constant CuH3L” value ([3]; 25°C, 0.15 M NaCl) of the same molecule?
A: 0.83 (2)

Q: And the “protonation constant CuHL” value ([3]; 25°C, 0.15 M NaCl)?
A: 4.08 (1)

Q: What about the “logKML, CuL” value ([3]; 25°C, I = 0.15 M NaCl, ref Takács et al., [2014]) of the same molecule?
A: 21.97 (1)

Q: And the “protonation constant CaHL” value ([4]; 0.15 M NaCl)?
A: 3.90 (2)

Q: What about the “logKML, CaL” value [4, 10] of the same molecule?
A: 13.84 (1)

Q: What about the “log K1H” value [1, 11] of the same molecule?
A: 9.14

Q: And the “log K2H” value [1, 11]?
A: 9.21

Q: What about the “log K3H” value [1, 11] of the same molecule?
A: 4.48

Q: What about the “log K4H” value [1, 11] of the same molecule?
A: 4.03

Q: What about the “log K5H” value [1, 11] of the same molecule?
A: 1.99

Q: And the “log K6H” value [1, 11]?
A: 1.58

Q: And the “Σlog KiH (total basicity)” value [1, 11]?
A: 30.43

Q: Which logKNaL [5] does the source give for `O=C([O-])CN1CCN(CC(=O)O)CCN(CC(=O)O)CCN(CC(=O)O)CC1.[Na+]` [[Na(DOTA)]^3−] here?
A: 4.38

Q: Which “protonation constant ZnHL” value ([6]; 0.15 M NaCl) does the source give for `O=C(CCP(=O)(O)CN1CCN(CP(=O)(O)CCC(=O)NC2CCCCC2)CCN(CP(=O)(O)CCC(=O)NC2CCCCC2)CCN(CP(=O)(O)CCC(=O)NC2CCCCC2)CC1)NC1CCCCC1` [DOTPI(Chx)4] here?
A: 2.44 (8)

Q: And the “logKML, ZnL” value ([6]; I = 0.15 M NaCl, potentiometry)?
A: 15.13 (1)^b

Q: What about the “protonation constant CuH2L” value ([7]; 0.15 M NaCl) of the same molecule?
A: 1.55 (2)

Q: What about the “protonation constant CuHL” value ([7]; 0.15 M NaCl) of the same molecule?
A: 2.46 (1)

Q: And the “logKML, CuL” value ([7]; I = 0.15 M NaCl, UV/Vis spectroscopy)?
A: 20.42 (1)^a

Q: What about the “log K1H” value [8] of the same molecule?
A: 9.89 (1)

Q: And the “log K2H” value [8]?
A: 7.73 (1)

Q: And the “log K3H” value [8]?
A: 3.34 (1)

Q: What about the “Σlog KiH (total basicity)” value ([8]; distant carboxylate groups of DOTPI not considered) of the same molecule?
A: 20.96

Q: What about the “logKML, CaL” value [9] of the same molecule?
A: 8.99 (2)^b

Q: For `O=C([O-])CN(CCN(CC(=O)[O-])CC(=O)[O-])CC(=O)[O-].[Cu+2]` [Cu(EDTA), reference compound], which “stability constant of the Cu(EDTA) complex” value ([3]; taken from the literature) is on record?
A: 19.05

Q: With `O=[PH](O)CN1CCN(C[PH](=O)O)CCN(C[PH](=O)O)CCN(C[PH](=O)O)CC1` [DOTP^H] as the molecule, how does the “protonation constant ZnHL” value ([2]; 0.1 M KNO3) read?
A: 2.62

Q: What about the “logKML, ZnL” value [2, 12] of the same molecule?
A: 14.60

Q: And the “logKML, ZnL” value [2, 13]?
A: 15.80

Q: What about the “logKML, CuL” value ([3]; 25°C, I = 0.1 M KNO3, ref Baranyai et al., [2007]) of the same molecule?
A: 18.03

Q: And the “logKML, CuL” value ([3]; 25°C, I = 0.1 M KNO3, ref Desreux et al., [1981])?
A: 19.59

Q: What about the “protonation constant CaHL” value ([4]; 0.1 M KNO3) of the same molecule?
A: 3.94

Q: And the “logKML, CaL” value [4, 12]?
A: 9.46

Q: What about the “logKML, CaL” value [4, 13] of the same molecule?
A: 9.39

Q: And the “log K1H” value [1, 14]?
A: 10.41 and 10.58

Q: What about the “log K2H” value [1, 14] of the same molecule?
A: 6.83 and 6.93

Q: And the “log K3H” value [1, 14]?
A: 1.97 and 1.90

Q: What about the “Σlog KiH (total basicity)” value [1, 14] of the same molecule?
A: 19.21 and 19.41

Q: And the “log K1H” value [1, 15]?
A: 10.94

Q: What about the “log K2H” value [1, 15] of the same molecule?
A: 8.24

Q: And the “log K3H” value [1, 15]?
A: 3.71

Q: And the “Σlog KiH (total basicity)” value [1, 15]?
A: 22.89

From PMC5902495, “Synthesis of Symmetrical Tetrameric Conjugates of the Radiolanthanide Chelator DOTPI for Application in Endoradiotherapy by Means of Click Chemistry” (Frontiers in Chemistry, 2018)
